Legend:
hMATE2K = molecular target: T1, hMATE2K (Homo sapiens, UniProt Q86VL8); assay: Inhibition of hMATE2K-mediated MPP+ uptake, stably transfected 293 cells; assay type: cell-based; conditions: substrate 3 µM MPP+, median (95% CI)
T1 construct: expressed in transfected cells; host or cells: HEK-293 (293) cells, pEBTetD plasmid, doxycycline-induced
Description: (§1) We characterized the inhibitory potential of iohexol on major drug transporters recommended by regulatory agencies, which were previously assessed in a clinical transporter phenotyping cocktail study. These transporters include hOAT1, hOAT3, hOCT1, hOCT2, hMATE1, hMATE2K, human organic anion transporter polypeptides (hOATP)1B1, hOATP1B3, and human multidrug resistance protein (hMDR)1. Additionally, we investigated whether iohexol is a substrate for any of the renal transporters among these, including hOAT1/3, hOCT1/2, and hMATE1/2K. Cell‐based uptake assays were used to assess the activities of hOAT1/3, hOCT1/2, hMATE1/2K, and hOATP1B1/1B3. Inside‐out membrane vesicle uptake assays were used to evaluate the activity of hMDR1.
(§2) To determine the maximal inhibitory potential of iohexol, intracellular accumulation of a standard substrate was measured with and without the clinically relevant highest concentrations of iohexol. Control inhibitors were tested in each experiment.
In all subsequent in vitro studies, control experiments were conducted to validate the results. These included positive controls for substrates and inhibitors, as well as cells either without transporter expression or transfected with an empty vector, and control vesicles. Each condition, including cells or vesicles with the transporter and their respective controls, was analyzed in at least three replicates. For detailed information on materials, methods, and data analysis techniques used, refer to the Supporting Information. […]
R version 4.2.1 (R Foundation for Statistical Computing, Vienna, Austria) was used for statistical evaluations and data visualization. The data analysis approach for the in vitro study was detailed by Hsin CH et al..^1 In brief, for transport assays, the initial uptake rate was calculated by normalizing the substrate concentration to both the protein concentration and the incubation time for each dish or well. The transporter-mediated uptake rate (net uptake) was determined by performing an element-wise subtraction of uptake rates from different conditions. […]

hOATP1B3 = molecular target: T2, hOATP1B3 (Homo sapiens, UniProt Q9NPD5); assay: Inhibition of hOATP1B3-mediated 3H-BSP uptake, stably transfected 293 cells; assay type: cell-based; conditions: substrate 0.02 μM 3H-BSP, median (95% CI)
T2 construct: expressed in transfected cells; host or cells: 293 cells (control: empty vector)
T2 sequence (Q9NPD5 1-702): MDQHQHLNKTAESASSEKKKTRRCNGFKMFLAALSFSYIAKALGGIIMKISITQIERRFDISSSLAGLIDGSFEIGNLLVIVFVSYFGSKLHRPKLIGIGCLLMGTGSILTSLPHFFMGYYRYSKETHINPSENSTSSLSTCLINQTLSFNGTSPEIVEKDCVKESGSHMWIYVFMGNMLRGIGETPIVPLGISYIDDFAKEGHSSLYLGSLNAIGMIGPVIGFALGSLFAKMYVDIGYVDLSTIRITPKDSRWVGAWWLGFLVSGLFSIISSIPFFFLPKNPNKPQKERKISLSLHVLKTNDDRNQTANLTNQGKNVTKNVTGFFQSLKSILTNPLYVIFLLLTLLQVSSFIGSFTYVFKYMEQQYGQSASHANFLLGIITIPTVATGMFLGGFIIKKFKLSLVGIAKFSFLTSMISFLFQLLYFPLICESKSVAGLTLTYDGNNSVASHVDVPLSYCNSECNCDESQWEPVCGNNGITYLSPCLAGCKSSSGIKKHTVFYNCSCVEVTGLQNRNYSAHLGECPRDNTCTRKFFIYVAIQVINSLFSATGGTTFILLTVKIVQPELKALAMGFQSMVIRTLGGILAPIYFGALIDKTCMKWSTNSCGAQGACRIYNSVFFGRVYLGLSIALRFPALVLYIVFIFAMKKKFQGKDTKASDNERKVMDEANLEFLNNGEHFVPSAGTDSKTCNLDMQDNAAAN
Description: as §1, §2
In all subsequent in vitro studies, control experiments were conducted to validate the results. […] Each condition, including cells or vesicles with the transporter and their respective controls, was analyzed in at least three replicates. […]
Uptake assays were carried out with stably transfected 293 cells expressing hOATP1B1 or hOATP1B3, as well as cells containing an empty vector, using the method described by Hsin CH, et al..^1 For the inhibition assays, cells were incubated with the radiolabeled standard substrates specific to each transporter: 0.01 μM ^3H-estrone sulfate for hOATP1B1, and 0.02 μM ^3H-bromosulphophthalein (BSP) for hOATP1B3. […] The accumulation of radio-labelled probe substrates (^3H) in the cell lysate is determined using a Tri-Carb 2810 liquid scintillation counter (PerkinElmer, Waltham, MA, USA) as described previously.^1 Cellular protein amount was determined in parallel from 6 paired wells per cell line and experimental day, using the Bradford method.^2 The 1X lysis buffer (5X lysis buffer from Promega, diluted 1+4 [v/v] in ddH2O) was used as the lysis buffer. […]

T1 sequence (Q86VL8 1-566 isoform Q86VL8-3): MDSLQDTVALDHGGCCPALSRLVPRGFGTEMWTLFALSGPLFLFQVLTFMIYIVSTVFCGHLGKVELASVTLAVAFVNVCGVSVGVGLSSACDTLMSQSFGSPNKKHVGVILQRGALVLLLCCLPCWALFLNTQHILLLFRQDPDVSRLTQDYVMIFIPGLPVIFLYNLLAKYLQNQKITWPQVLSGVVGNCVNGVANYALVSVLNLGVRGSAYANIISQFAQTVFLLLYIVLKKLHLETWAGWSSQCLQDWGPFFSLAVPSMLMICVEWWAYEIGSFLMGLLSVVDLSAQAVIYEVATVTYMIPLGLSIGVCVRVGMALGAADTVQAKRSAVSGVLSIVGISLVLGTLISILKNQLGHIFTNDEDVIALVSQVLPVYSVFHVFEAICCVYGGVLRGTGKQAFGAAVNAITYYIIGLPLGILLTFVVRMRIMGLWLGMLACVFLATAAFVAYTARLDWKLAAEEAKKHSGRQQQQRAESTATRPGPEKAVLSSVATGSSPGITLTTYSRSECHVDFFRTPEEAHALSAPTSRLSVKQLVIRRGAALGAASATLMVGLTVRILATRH

CC(=O)N(CC(O)CO)c1c(I)c(C(=O)NCC(O)CO)c(I)c(C(=O)NCC(O)CO)c1I (stereo not drawn) [iohexol]
Inhibitory effect (% reduction of specific activity) (hMATE2K; 20 mM iohexol): < 30% | inhibition at 1000 µM (hMATE2K; HEK293, 1 mM iohexol, read-out: Inhibitory effect (% reduction of specific activity)): 14% | inhibition at 20000 µM (hMATE2K; HEK293, 20 mM iohexol, read-out: Inhibitory effect (% reduction of specific activity)): 26% | Inhibitory effect (% reduction of specific activity) (hOATP1B3; 20 mM iohexol): no notable inhibitory effects | inhibition at 7 min, 2 mM (hOATP1B3; human, stably transfected 293 cells expressing hOATP1B3, probe 3H-bromosulphophthalein (BSP), 2 mM iohexol, read-out: Inhibitory effect (% reduction of specific activity)): -2.5% | inhibition at 7 min, 20 mM (hOATP1B3; human, stably transfected 293 cells expressing hOATP1B3, probe 3H-bromosulphophthalein (BSP), 20 mM iohexol, read-out: Inhibitory effect (% reduction of specific activity)): -21%

From publication PMC11788587, “Validating Low‐Dose Iohexol as a Marker for Glomerular Filtration Rate by In Vitro and In Vivo Studies” (Clinical and Translational Science, 2025)
